Source: patent publication US9381260B2, “Hypoxia inducible factor-1 pathway inhibitors and uses as anticancer and imaging agents” (EMORY UNIVERSITY, priority 2011, dated 2016)
Values after ≈ are worked out from the molar mass of the structure shown.

Legend:
[1] = test system: LN229-Lux cells (constitutive luciferase reporter gene); test: Constitutive luciferase reporter control assay in LN229-Lux cells; type: cell-based, human; details: control for luciferase inhibition
Protocol: (§1) Results are plotted as percent of luciferase activity found in extracts of untreated cells used as controls. (A) Luciferase activity in extracts of LN229-V6R cells, which contain a HIF-inducible luciferase reporter gene. The cells were grown under hypoxia to activate HIF. (B) Luciferase activity in extracts of LN229-Lux cells, which contain a constitutively expressed luciferase reporter gene. Results shown are from cells grown under normoxia; similar results were obtained under hypoxia.
(§2) The effects of the 12 heteroarylsulfonamides on HIF transcriptional activity under hypoxia were measured by determining the luciferase activity present in LN229-V6R cells, which contain a stably integrated hypoxia/HIF inducible luciferase reporter gene. As a control for the absence of inhibition on luciferase enzyme per se, we also tested 1 and five heteroarylsulfonamides in LN229-Lux cells that contain a constitutive luciferase reporter gene driven by a retroviral LTR promoter. An Hsp90 inhibitor, 17-DMAG, and 1 were used as positive controls. […] The heteroarylsulfonamides decreased HIF-1 activity in a dose-dependent fashion with IC50 values below (6a, 6b, 6d-6f, 6h, 6i, 6l) or close to 5 μM (6c, 6g, 6j, 6k) (FIG. 2).

[2] = test system: HIF-1 transcriptional activity; test: HIF-inducible luciferase reporter assay in LN229-V6R cells under hypoxia; type: cell-based, human
Protocol: as §1, §2

[3] = test system: HIF-1α; test: HIF-1α protein levels by Western blot in LN229-V6R cells under hypoxia; type: cell-based, human; details: 24 h; for effect on HIF-1α protein levels: 3-100 μM
Protocol: HIF-1 is a heterodimer of HIF-1α and HIF-1β subunits, which then associates with p300 or CBP cofactors to form an active transcriptional complex. […] To determine whether the heteroarylsulfonamides retain this property, we determined the levels of HIF-1α protein under hypoxia in LN229-V6R cells. […] We investigated if the levels of HIF-1α protein would correlate with transcriptional inhibition of the HRE reporter by the compounds. LN229-V6R cells were treated with the compounds at concentrations of 3, 6, 12, 25, 50, and 100 μM under hypoxia for 24 h, and then HIF-1α protein levels in the cell extracts were examined by Western blotting. […] 6g and 61 decreased HIF-1a levels in a dose-dependent fashion starting from 12 and 25 μM, respectively (FIG. 3). […] The reduction in HIF-1α levels afforded by all three compounds at 100 μM may reflect nonspecific cytotoxicity.

[4] = Metabolic stability in homogenates of mouse liver; type: in vitro ADME; details: homogenates of mouse liver in PBS 1:2 (w/v), ex vivo; for half-life: mouse, mouse liver homogenate, read-out: half-life (hepatic metabolic stability) (converted)
Protocol: Metabolic stabilities of 1, 6a, 6d, 6g, and 6l were measured in mouse plasma and homogenates of mouse liver in PBS [1:2 (w/v)].

[5] = Aqueous solubility by HPLC-UV on filtered saturated suspensions; type: physicochemical; details: for aqueous solubility (n = 3) / solubility: HPLC-UV, saturated aqueous suspension, PTFE filter 0.2 μm; for solubility: water, thermodynamic from solid, read-out: aqueous solubility (n = 3); for aqueous solubility relative to 1: fold more soluble than compound 1
Description: Aqueous solubilities of 1, 6a, 6d, and 6g were quantified by HPLC coupled with a UV detector on saturated aqueous suspensions after filtration with a polytetrafluoroethylene (PTFE) filter (pore size 0.2 μm). 6a and 6d were chosen due to their strong activity in the HRE-reporter assay, and 6g was picked to evaluate the influence of the methoxy group attached to the C-8 position of the chromene ring. Aqueous solubilities of 6a, 6d, and 6g are, respectively, 100, 20, and 9000 times better than that of 1, which are consistent with the log Sw predictions for 6a and 6d. The substitution of hydrogen with a methoxy group at the C-8 position of the chromene ring increased the aqueous solubility by 90 times (compare 6a and 6g).

[6] = Aqueous solubility by laser nephelometry at pH 3.0, 5.0, 7.4; type: physicochemical; details: pH 5.0 and pH 3.0 versus pH 7.4
[7] = log P7.4 by shake flask or HPLC method (OECD guidelines); type: physicochemical; details: pH 7.4
Protocol: Experimental determinations of log P7.4, aqueous solubility, and metabolic stability of a selected number of the heteroarylsulfonamides were performed to further characterize the compounds (Table 2 log P7.4 was measured by either the shake flask method (6a, 6g) or the HPLC method (1, 6b-6f, 6h-6l) according to OECD guidelines. Most compounds followed the trends predicted by in silico calculations, and the measured values were smaller than the predicted values by 1.0-1.5. When a methoxy group or hydroxyl group is placed at the C-8 position of the chromene ring instead of a hydrogen, as in 6g, 6h, and 6l, the log P7.4 value decreased by more than 2 from the predicted values to result in 1.2-1.3. The presence of a 2-methylpropan-2-yl group in region 2 conferred high log P7.4 values, and heteroarylsulfonyl groups in region 1 also affected log P7.4 values, as shown for 6c, 6i, 6j, and 6k.

[8] = test system: LN229 human glioblastoma cells; test: Clonogenicity assay LN229; type: cell-based; details: LN-229, 336 h, 14 days
Description: (§3) To determine whether 6a, 6g, and 6l altered tumor cell growth in culture, we performed sulforhodamine B (SRB) assays in LN229-V6R glioma cells in 3 days, and to further examine the cell growth inhibitory activity of 6a, 6g, and 61 in an independent biological assay, we performed clonogenicity assays in LN229 human glioblastoma cells and HFF-1 immortalized human fibroblasts, over a period of 14 days.

[9] = test system: HFF-1 immortalized human fibroblasts; test: Clonogenicity assay HFF-1; type: cell-based; details: HFF-1, 336 h, 14 days
Description: as §3

For CO[C@H]1/C=C\C=C(/C)C(=O)NC2=CC(=O)C(NCCN(C)C)=C(C[C@@H](C)C[C@H](OC)[C@H](O)[C@@H](C)/C=C(\C)[C@@H]1OC(N)=O)C2=O [17-DMAG, reference compound], the “effect on luciferase activity in LN229-Lux cells” value [1] was “inhibited” and the “effect on luciferase activity in LN229-V6R cells” value [2] was “inhibited”.

With COc1ccc(S(=O)(=O)N(Cc2ccc3c(c2)C=CC(C)(C)O3)c2ccccc2)cc1OC [Compound 1, 3,4-Dimethoxy-N-[(2,2-dimethyl-2H-chromene-6-yl)methyl]-N-phenylbenzenesulfonamide, reference compound] the “effect on HIF-1α protein levels” value [3] was “does not antagonize hypoxia-induced HIF-1α expression”, the half-life [4] was 11 h and the “aqueous solubility (n = 3)” value [5] was 0.009 µM (≈ 0.00419 µg/mL). For the same compound, the solubility [5] was 0.003 µg/mL (≈ 0.00644 µM), the “effect on luciferase activity in LN229-Lux cells” value [1] was “reduced luciferase activity only in LN229-V6R cells” and the “effect of low pH on aqueous solubility” value [6] was “pH did not affect aqueous solubility”. The activity at 2.5 µM ([2]; Homo sapiens, 2.5 μM, LN229-V6R cells, read-out: remaining HIF-1 activity at 2.5 μM, % of control) was 18% and the “log P7.4” value [7] was 3.7.

Work on CC(C)N(Cc1ccc2c(c1)C=CC(C)(C)O2)S(=O)(=O)c1ccccn1 [Compound 6a, N-[(2,2-Dimethyl-2H-chromen-6-yl)methyl]-N-(propan-2-yl)pyridine-2-sulfonamide] yielded an IC50 ([8]; LN229, hypoxia) of 134 µM, an IC50 ([8]; LN229, normoxia) of 82 µM and an IC50 ([9]; HFF-1, hypoxia) of 93 µM. For the same compound, the IC50 ([9]; HFF-1, normoxia) was 62 µM, the “effect on HIF-1α protein levels” value [3] was “no effect on HIF-1α levels at all concentrations tested, except for a slight reduction at the highest concentration (100 μM)” and the “half-life (hepatic metabolic stability)” value [4] was 20 h. The half-life [4] was 13 to 20 h, the “aqueous solubility (n = 3)” value [5] was 1 ± 0.1 µM (≈ 0.372 µg/mL) and the “aqueous solubility relative to 1” value [5] was 100 times. The solubility [5] was 0.3 µg/mL (≈ 0.805 µM), the “effect of low pH on aqueous solubility” value [6] was 50-60 times and the “inhibition of HIF-1 transcriptional activity (HRE-reporter) at 10 μM” value ([2]; 10 μM, LN229-V6R cells, 1 day) was “inhibited completely”. For the same compound, the IC50 ([2]; Homo sapiens, LN229-V6R cells) was under 5 µM and the “log P7.4” value [7] was 2.0.

For CC1(C)C=Cc2cc(CN(C3CC3)S(=O)(=O)c3ccccn3)ccc2O1 [Compound 6b, N-Cyclopropyl-N-[(2,2-dimethyl-2H-chromen-6-yl)methyl]pyridine-2-sulfonamide], the IC50 ([2]; Homo sapiens, LN229-V6R cells) was under 5 µM and the “log P7.4” value [7] was 3.0.

In the case of CC(C)CN(Cc1ccc2c(c1)C=CC(C)(C)O2)S(=O)(=O)c1ccccn1 [Compound 6c, N-[(2,2-Dimethyl-2H-chromen-6-yl)methyl]-N-(2-methylpropyl)pyridine-2-sulfonamide], the “log P7.4” value [7] is reported as 4.1.

For CC1(C)C=Cc2cc(CN(CC3CC3)S(=O)(=O)c3ccccn3)ccc2O1 [Compound 6d, N-(Cyclopropylmethyl)-N-[(2,2-dimethyl-2H-chromen-6-yl)methyl]pyridine-2-sulfonamide], the “half-life (hepatic metabolic stability)” value [4] was 13 h, the half-life [4] was 13 to 20 h and the “aqueous solubility (n = 3)” value [5] was 0.2 ± 0.07 µM (≈ 0.0769 µg/mL). For the same compound, the “aqueous solubility relative to 1” value [5] was 20 times, the solubility [5] was 0.1 µg/mL (≈ 0.26 µM) and the “log P7.4” value [7] was 3.1.

For CC1(C)C=Cc2cc(CN(C3CCC3)S(=O)(=O)c3ccccn3)ccc2O1 [Compound 6e, N-(Cyclobutyl)-N-[(2,2-dimethyl-2H-chromen-6-yl)methyl]pyridine-2-sulfonamide], the “log P7.4” value [7] was 3.0.

In the case of CC1(C)C=Cc2cc(CN(C3CCCC3)S(=O)(=O)c3ccccn3)ccc2O1 [Compound 6f, N-(Cyclopentyl)-N-[(2,2-dimethyl-2H-chromen-6-yl)methyl]pyridine-2-sulfonamide], the “log P7.4” value [7] is reported as 3.8.

COc1cc(CN(C(C)C)S(=O)(=O)c2ccccn2)cc2c1OC(C)(C)C=C2 [Compound 6g] showed an IC50 ([8]; LN229, hypoxia) of over 100 µM, an IC50 ([8]; LN229, normoxia) of 69 µM and an IC50 ([9]; HFF-1, hypoxia) of over 100 µM. For the same compound, the IC50 ([9]; HFF-1, normoxia) was 55 µM, the “concentration from which HIF-1α levels decreased dose-dependently” value [3] was 12 µM and the “half-life (hepatic metabolic stability)” value [4] was 15 h. For the same compound, the half-life [4] was 13 to 20 h and the “aqueous solubility relative to 1” value [5] was 9000 times.

For CC(C)CN(Cc1ccc2c(c1)C=CC(C)(C)O2)S(=O)(=O)c1ccncc1 [Compound 6i, N-[(2,2-Dimethyl-2H-chromen-6-yl)methyl]-N-(2-methylpropyl)pyridine-4-sulfonamide], the IC50 ([2]; Homo sapiens, LN229-V6R cells) was under 5 µM and the “log P7.4” value [7] was 3.6.

For CC(C)CN(Cc1ccc2c(c1)C=CC(C)(C)O2)S(=O)(=O)c1nccn1C [Compound 6j, N-[(2,2-Dimethyl-2H-chromen-6-yl)methyl]-N-(2-methylpropyl)-1-methyl-1H-imidazole-2-sulfonamide], the “log P7.4” value [7] was 3.1.

With CC(C)CN(Cc1ccc2c(c1)C=CC(C)(C)O2)S(=O)(=O)c1nccs1 [Compound 6k, N-[(2,2-Dimethyl-2H-chromen-6-yl)methyl]-N-(2-methylpropyl)-1,3-thiazole-2-sulfonamide] the “log P7.4” value [7] was 4.4.
